The record followed here is PMC9579956 (RSC Medicinal Chemistry, 2022).

For the assay, the target named is Mycobacterium thermoresistible (Mtr) LpqY (Mycolicibacterium thermoresistibile, UniProt G7CES0). It is filed as binding. Particulars: single dose MST screen against LpqY.
Mycobacterium thermoresistible (Mtr) LpqY, sequence (G7CES0 29-471): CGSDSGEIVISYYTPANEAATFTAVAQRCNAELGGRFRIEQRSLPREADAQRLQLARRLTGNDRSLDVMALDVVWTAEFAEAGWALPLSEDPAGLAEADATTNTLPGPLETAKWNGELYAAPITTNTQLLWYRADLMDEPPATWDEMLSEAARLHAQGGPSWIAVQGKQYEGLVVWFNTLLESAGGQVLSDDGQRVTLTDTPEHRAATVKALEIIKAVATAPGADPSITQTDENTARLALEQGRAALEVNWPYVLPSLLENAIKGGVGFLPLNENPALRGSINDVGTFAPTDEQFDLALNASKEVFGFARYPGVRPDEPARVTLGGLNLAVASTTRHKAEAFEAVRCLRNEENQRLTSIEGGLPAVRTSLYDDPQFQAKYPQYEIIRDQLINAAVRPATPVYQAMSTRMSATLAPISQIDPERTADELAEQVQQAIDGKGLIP

Turning to `O=C(NCCN1CCCC1)c1cc(NCCCCN2CCC(F)(F)CC2)nc2ccc(Cl)cc12` [MMV667494], the “Pathogen Box screen signal/noise ratio” value is 0.344. `Nc1ncc(-c2ccc(C(F)(F)F)nc2)cc1-c1ccc(C(F)(F)F)nc1` [MMV668727]: the “Pathogen Box screen signal/noise ratio” value came out at 2.0. For the compound `Cc1[nH]c2cc(F)cc(F)c2c(=O)c1-c1ccc(Oc2ccc(OC(F)(F)F)cc2)cc1` [MMV671636], the “Pathogen Box screen signal/noise ratio” value was 0.545. For `COc1ccc(OC)c(NCc2ccc3nc(N)nc(N)c3c2Cl)c1` [MMV675968], the “Pathogen Box screen signal/noise ratio” value amounted to 5.0. `CC(C)(C)c1ccc(N[C@@H]2CCCC[C@H]2NC(=O)c2ccco2)cc1` [MMV675969]: the “Pathogen Box screen signal/noise ratio” value is 0.3. With `COc1ccc(-c2nn(C(C)C)c3ncnc(N)c23)cc1OC` [MMV675993], the “Pathogen Box screen signal/noise ratio” value came out at 0.75. The same measure for `Clc1ccc(-n2cc(COc3ccnc4ccccc34)nn2)cc1` [MMV675994]: 3.3; for `COc1ccc(N(CCc2cccc(C)n2)C(C)=O)cc1` [MMV675995]: 0.318. For the compound `N#CCN(CCCCN1CCN(c2ccc(F)cc2)CC1)C(=O)OCc1ccccc1` [MMV675997], the “Pathogen Box screen signal/noise ratio” value was 0.322. The same measure for `COc1ccc(C(=N)N)cc1-c1cn(-c2ccc(C(=N)N)cc2)nn1` [MMV675998]: 1.0; for `O=C(Nc1c(O)cccc1-c1nc2c(C(=O)O)cccc2o1)c1cc(-c2ccccc2)on1` [MMV676008]: 1.7; for `Clc1ccc(Cl)c(CO[C@H]2CCCC[C@@H]2n2ccnc2)c1` [MMV676048]: 1.1. Consider `CS(=O)(=O)N1CCC(Cn2nc(Cc3cccc4ccccc34)c3c(N)ncnc32)CC1` [MMV676050], for which the “Pathogen Box screen signal/noise ratio” value amounted to 0.8.

Consider `COc1cc(NC(=O)Cc2nn(C)c(=O)c3ccccc23)ccc1Cl` [MMV676053], for which the “Pathogen Box screen signal/noise ratio” value was found to be 1.3. The same measure for `CC(C)(C)OC(=O)N1CCN(c2cc(-c3ccc(Oc4ccccc4)cc3)n[nH]2)CC1` [MMV676057]: 1.2; for `CCCCc1ccc(NC(=O)Nc2ccc(O[C@H]3CCCC[C@@H]3N(C)c3ccccc3)c(F)c2)cc1` [MMV676063]: 0.0; for `CC(=O)N(CCN(C(=O)c1ccc(F)cc1)c1ccccc1)c1ccccc1` [MMV676064]: 0.35. The same measure for `Clc1cccc(CO[C@H]2CCc3ccccc3[C@@H]2n2ccnn2)c1` [MMV676159]: 1.0. To `c1ccc(Oc2ccc(-c3cc(CN4CCOCC4)[nH]n3)cc2)cc1` [MMV676161] belongs 1.1; to `O=C(Nc1ccccc1-c1nc2c(C(=O)O)cccc2o1)c1ccccc1` [MMV676162], 0.9; to `Nc1ncnc2c1c(Cc1cccc3ccccc13)nn2CC1CCNCC1` [MMV676182], 0.0. Regarding `COC(=O)c1cccc2oc(-c3cccc(OC)c3NC(=O)c3cc(-c4ccccc4)on3)nc12` [MMV676186], the “Pathogen Box screen signal/noise ratio” value amounted to 0.1.

As for `CC(C)C(Oc1cccc2ccccc12)C(=O)O` (centres unmarked) [MMV676191], the “Pathogen Box screen signal/noise ratio” value is recorded as 0.9.

Take `O=C(c1ccc(F)cc1)N(CCNc1ccccc1)c1ccccc1` [MMV676204]: the “Pathogen Box screen signal/noise ratio” value is 0.644. The same measure for `CN1CCN(c2nccc3nc(-c4ccc(F)c(F)c4)[nH]c23)CC1` [MMV676260]: 0.635. For `C[C@H](C(N)=O)N1CCCC[C@H]1c1ccc(OCc2cccc(F)c2)cc1` [MMV676269], the “Pathogen Box screen signal/noise ratio” value amounted to 0.212. On to `C[C@H](C(N)=O)N1CCCC[C@@H]1c1ccc(OCc2cccc(F)c2)cc1` [MMV676270], for which the “Pathogen Box screen signal/noise ratio” value is 0.9. `Cc1cnc(CCNC(=O)c2cc(-c3ccc(Cl)cc3)cs2)[nH]1` [MMV676350]: the “Pathogen Box screen signal/noise ratio” value came to 1.3. Turning to `Nc1ncc(Br)cc1-c1nc2cc(Cl)cnc2[nH]1` [MMV676358], the “Pathogen Box screen signal/noise ratio” value came to 4.8.
